Measurements: the supplement of paper PMC10307832

Legend:
Assay in all cases: relative viability (nuclei count vs DMSO), 5 days (fraction); higher = more cells survive
Dovitinib + AZD7762 = compound: CN1CCN(c2ccc3nc(-c4c(N)c5c(F)cccc5[nH]c4=O)[nH]c3c2)CC1 [Dovitinib] + NC(=O)Nc1cc(-c2cccc(F)c2)sc1C(=O)N[C@H]1CCCNC1 [AZD7762] (partner 0.2 µM)
Outline: (§1)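 Lung cancer cell lines in 1536-well plates got either a single drug or a fixed anchor-drug dose together with five library-drug doses (not always all listed) in √10 steps, by pin tool, on the day after seeding. Nuclei were counted after 5 days, and relative viability is the treated-to-vehicle ratio of nuclei counts. Values are medians of duplicate plates.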

Dovitinib + Pictilisib = compound: CN1CCN(c2ccc3nc(-c4c(N)c5c(F)cccc5[nH]c4=O)[nH]c3c2)CC1 [Dovitinib] + CS(=O)(=O)N1CCN(Cc2cc3nc(-c4cccc5[nH]ncc45)nc(N4CCOCC4)c3s2)CC1 [Pictilisib] (partner 1 µM)
Outline: as §1

Dovitinib + Phenformin = compound: CN1CCN(c2ccc3nc(-c4c(N)c5c(F)cccc5[nH]c4=O)[nH]c3c2)CC1 [Dovitinib] + N=C(N)NC(=N)NCCc1ccccc1 [Phenformin] (partner 250 µM)
Outline: as §1

Dovitinib + Alpelisib = compound: CN1CCN(c2ccc3nc(-c4c(N)c5c(F)cccc5[nH]c4=O)[nH]c3c2)CC1 [Dovitinib] + Cc1nc(NC(=O)N2CCC[C@H]2C(N)=O)sc1-c1ccnc(C(C)(C)C(F)(F)F)c1 [Alpelisib] (partner 2 µM)
Outline: as §1

Cell Line	relative viability (Dovitinib + AZD7762; first compound 0.02 µM)	relative viability (Dovitinib + AZD7762; first compound 0.06325 µM)	relative viability (Dovitinib + AZD7762; first compound 0.2 µM)	relative viability (Dovitinib + AZD7762; first compound 0.6325 µM)	relative viability (Dovitinib + AZD7762; first compound 2 µM)	relative viability (Dovitinib + Pictilisib; first compound 0.02 µM)	relative viability (Dovitinib + Pictilisib; first compound 0.06325 µM)	relative viability (Dovitinib + Pictilisib; first compound 0.6325 µM)	relative viability (Dovitinib + Pictilisib; first compound 2 µM)	relative viability (Dovitinib + Phenformin; first compound 0.02 µM)	relative viability (Dovitinib + Phenformin; first compound 0.06325 µM)	relative viability (Dovitinib + Phenformin; first compound 0.2 µM)	relative viability (Dovitinib + Phenformin; first compound 0.6325 µM)	relative viability (Dovitinib + Phenformin; first compound 2 µM)	relative viability (Dovitinib + Alpelisib; first compound 0.02 µM)	relative viability (Dovitinib + Alpelisib; first compound 0.06325 µM)	relative viability (Dovitinib + Alpelisib; first compound 0.6325 µM)	relative viability (Dovitinib + Alpelisib; first compound 2 µM)	relative viability (Dovitinib + Pictilisib; first compound 0.2 µM)	relative viability (Dovitinib + Alpelisib; first compound 0.2 µM)
201T	0.615	0.814	0.598	0.606	0.562	0.725	0.692	0.702	0.658	0.449	0.42	0.463	0.409	0.459	0.979	0.975	1.01	0.996		
A-427	0.767	0.733	0.674	0.665	0.697	0.724	0.625	0.585	0.774	0.363	0.3	0.307	0.282	0.347	0.979	1.03	0.938	1.03	0.573	1.07
ABC-1	0.519	0.852	0.735	0.536	0.698	0.697	0.664	0.872	0.78	0.211	0.317	0.243	0.237	0.204	0.994	0.947	0.564	0.823	0.826	0.967
BEN	0.692	0.697	0.637	0.877	0.597	0.565	0.548	0.661	0.493	0.248	0.288	0.281	0.296	0.305	0.981	0.828	0.954	0.936	0.553	0.988
CAL-12T	0.648	0.664	0.558	0.659	0.505	0.664	0.3	0.528	0.722	0.585	0.624	0.556	0.616	0.664	1.16	1.06	1.37	1.15	0.295	1.18
COR-L23						0.733	0.75	0.838	0.904	0.416	0.467	0.478	0.455	0.507	0.768	0.743	0.773	0.726	0.813	0.69
COR-L 105						0.362	0.356	0.439	0.529	0.396	0.52	0.506	0.486	0.62	0.938	0.986	0.84	0.958	0.365	1.01
Calu-6						0.931	0.885	0.893	1						0.943	0.97	0.925	1.01	0.913	0.872
ChaGo-K-1	0.901	0.891	0.892	0.9	0.857	0.653	0.654	0.883	0.972	0.469	0.534	0.499	0.476	0.51					0.829	
EBC-1						0.422	0.35	0.342	0.453						0.951	0.781	0.73	0.708	0.336	0.925
EKVX	0.569	0.775	0.694	0.755	0.684	0.451	0.366	0.506	0.463	0.217	0.225	0.232	0.253	0.236	0.889	0.848	0.942	0.946	0.462	0.901
EMC-BAC-2	1.21	1.06	1.1	1.08	1.16	0.515	0.516	0.512	0.56	0.527	0.482	0.538	0.471	0.542	0.784	0.772	0.687	0.736	0.497	0.701
EPLC-272H	0.281	0.218	0.197	0.218	0.239	0.35	0.277	0.383	0.353	0.323	0.309	0.274	0.384	0.317	0.9	0.815	0.946	0.888	0.311	0.97
H3255	0.966	0.907	1	0.89	0.809	0.539	0.514	0.516	0.514	0.378	0.347	0.381	0.372	0.441	0.785	0.655	0.8	0.937	0.498	0.735
HARA	0.334	0.257	0.381	0.211	0.315	0.372	0.259	0.398	0.417	0.537	0.476	0.47	0.362	0.53	0.791	0.908	0.853	0.705	0.367	0.778
HCC-15	1.05	1.17	1.1	1.19	1.32	0.827	0.742	0.82	0.722	0.482	0.475	0.502	0.436	0.472	0.916	0.868	0.848	0.939	0.767	0.915
HCC-44	0.979	0.97	1.03	0.955	0.975	0.516	0.594	0.62	0.591	0.294	0.138	0.174	0.229	0.197	0.721	0.783	0.856	0.747	0.642	0.835

Cell Line	relative viability (Dovitinib + AZD7762; first compound 0.02 µM)	relative viability (Dovitinib + AZD7762; first compound 0.06325 µM)	relative viability (Dovitinib + AZD7762; first compound 0.2 µM)	relative viability (Dovitinib + AZD7762; first compound 0.6325 µM)	relative viability (Dovitinib + AZD7762; first compound 2 µM)	relative viability (Dovitinib + Pictilisib; first compound 0.02 µM)	relative viability (Dovitinib + Pictilisib; first compound 0.06325 µM)	relative viability (Dovitinib + Pictilisib; first compound 0.6325 µM)	relative viability (Dovitinib + Pictilisib; first compound 2 µM)	relative viability (Dovitinib + Phenformin; first compound 0.02 µM)	relative viability (Dovitinib + Phenformin; first compound 0.06325 µM)	relative viability (Dovitinib + Phenformin; first compound 0.2 µM)	relative viability (Dovitinib + Phenformin; first compound 0.6325 µM)	relative viability (Dovitinib + Phenformin; first compound 2 µM)	relative viability (Dovitinib + Alpelisib; first compound 0.02 µM)	relative viability (Dovitinib + Alpelisib; first compound 0.06325 µM)	relative viability (Dovitinib + Alpelisib; first compound 0.6325 µM)	relative viability (Dovitinib + Alpelisib; first compound 2 µM)	relative viability (Dovitinib + Pictilisib; first compound 0.2 µM)	relative viability (Dovitinib + Alpelisib; first compound 0.2 µM)
HCC-78	0.71	0.481	0.674	0.699	0.489	0.206		0.272	0.213	0.769	0.688	0.716	0.902	0.729	0.422		0.364	0.316	0.24	0.384
IA-LM						0.412	0.333	0.279	0.337						0.732	0.78	0.911	0.765	0.481	0.854
NCI-H520						0.203	0.247	0.269	0.227	0.558	0.572	0.625	0.514	0.545	0.794	0.988	0.86	0.769	0.337	0.935
NCI-H661						0.427	0.465	0.427	0.359	0.267	0.328	0.304	0.268	0.308	0.706	0.661	0.898	0.573	0.455	0.885
NCI-H1299						0.897	0.8	0.626	0.789						0.984	1.02	1.04	1.09	0.69	1.02
NCI-H1563						0.631	0.629	0.635	0.672	0.591	0.669	0.665	0.656	0.664	0.943	0.893	0.908	0.902	0.685	1.06
NCI-H1648	0.497	0.717	0.661	0.701	0.634															
NCI-H1650						0.62	0.577	0.608	0.678	0.517	0.5	0.513	0.448	0.388					0.654	
NCI-H1703	0.132	0.0996	0.125	0.114	0.146	0.215	0.24	0.232	0.208						0.291	0.418	0.264	0.276	0.294	0.346
NCI-H2009						0.781	0.74	0.854	0.725	0.456	0.493	0.47	0.408	0.562	1.07	1.16	1.14	1.14	0.795	1.06
NCI-H2023						0.216	0.206	0.261	0.212	0.38	0.416	0.457	0.38	0.398	0.558	0.574	0.57	0.523	0.236	0.606
NCI-H2228						0.317	0.345	0.462	0.271	0.288	0.419	0.285	0.432	0.285	0.997	0.674	0.837	0.565	0.335	0.61
NCI-H2342	0.561	0.583	0.488	0.8	0.473					0.709	0.561	0.618	0.657	0.701						
SK-LU-1						0.64	0.657	0.73	0.576	0.515	0.525	0.594	0.595	0.528	0.928	0.946	0.805	1.16	0.513	0.951
SK-MES-1						0.354	0.359	0.36	0.327	0.662	0.7	0.69	0.634	0.667	0.852	0.89	0.936	0.971	0.349	0.907
SW 1573						0.487	0.545	0.382	0.512	0.355	0.413	0.473	0.282	0.359	0.785	0.798	0.657	0.753	0.483	0.703
UMC-11						0.806	0.783	0.85	0.735	0.315	0.327	0.347	0.323	0.344	0.958	0.941	0.82	0.961	0.85	0.892
